Results reported in patent US20230091047A1 (priority 2019, published 2023).

Legend:
[1] = test system: HBV (HepG2.117 cell line, inducibly HBV producing); experiment: Anti-HBV activity: intracellular HBV DNA by real-time PCR in HepG2.117 cells after 3 days of treatment; assay type: cell-based, hepatitis B virus; conditions: Hepatitis B virus, HepG2.117, 72 h, HepG2.117 cells, 3 days of treatment, intracellular HBV DNA by real-time PCR; mean value; read-out: EC50 (μM, mean value)
In short: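 Tet-off HepG2.117; HBV replication induced (no doxycycline); serial compound dilutions, 3 d; intracellular HBV DNA by real-time PCR, HBV-specific primers/probe.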

[2] = in vitro; assay type: cell-based; conditions: human, HepG2 or HepG2.117 cells, ATPlite, mean value; for CC50 at 4 days: 4-days incubation (values marked with *); for CC50 at 3 days: 3-days incubation (unmarked values)
In short: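 Luminescent ATP quantitation served as the viability endpoint following a 3- or 4-day incubation with test compounds.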

SMILES | EC50 [1] [µM] | CC50 at 4 days [2] [µM] | CC50 at 3 days [2] [µM]
COc1ccccc1-n1c(NCc2ccccn2)nc2c(c1=O)CCN(C(=O)c1ccc(Cl)c(Cl)c1)C2 [Compound C12, 7-(3,4-dichlorobenzoyl)-3-(2-methoxyphenyl)-2-{[(pyridin-2-yl)methyl]amino}-5,6,7,8-tetrahydropyrido[3,4-d]pyrimidin-4(3H)-one] | 5.95 | > 50 | –
COc1ccccc1-n1c(NCc2nccs2)nc2c(c1=O)CCN(C(=O)c1ccc(Cl)c(Cl)c1)C2 [Compound C13, 7-(3,4-dichlorobenzoyl)-3-(2-methoxyphenyl)-2-{[(1,3-thiazol-2-yl)methyl]amino}-5,6,7,8-tetrahydropyrido[3,4-d]pyrimidin-4(3H)-one] | 8.75 | 38.9 | –
COc1ccc(CNc2nc3c(c(=O)n2-c2ccccc2F)CCN(C(=O)c2ccc(Cl)c(Cl)c2)C3)cc1 [Compound C14, 7-(3,4-dichlorobenzoyl)-3-(2-fluorophenyl)-2-{[(4-methoxyphenyl)methyl]amino}-5,6,7,8-tetrahydropyrido[3,4-d]pyrimidin-4(3H)-one] | 1 | – | > 50
COc1ccc(CNc2nc3c(c(=O)n2-c2ccccc2Cl)CCN(C(=O)c2ccc(Cl)c(Cl)c2)C3)cc1 [Compound C15, 3-(2-chlorophenyl)-7-(3,4-dichlorobenzoyl)-2-{[(4-methoxyphenyl)methyl]amino}-5,6,7,8-tetrahydropyrido[3,4-d]pyrimidin-4(3H)-one] | 1.08 | – | > 50
COc1ccccc1-n1c(NCc2cscn2)nc2c(c1=O)CCN(C(=O)c1ccc(Cl)c(Cl)c1)C2 [Compound C16, 7-(3,4-dichlorobenzoyl)-3-(2-methoxyphenyl)-2-{[(1,3-thiazol-4-yl)methyl]amino}-5,6,7,8-tetrahydropyrido[3,4-d]pyrimidin-4(3H)-one] | 2.29 | 45.3 | –
COc1ccccc1CNc1nc2c(c(=O)n1-c1ccccc1OC)CCN(C(=O)c1ccc(Cl)c(Cl)c1)C2 [Compound C17, 7-(3,4-dichlorobenzoyl)-3-(2-methoxyphenyl)-2-{[(2-methoxyphenyl)methyl]amino}-5,6,7,8-tetrahydropyrido[3,4-d]pyrimidin-4(3H)-one] | 0.97 | 28.9 | –
COc1cccc(CNc2nc3c(c(=O)n2-c2ccccc2OC)CCN(C(=O)c2ccc(Cl)c(Cl)c2)C3)c1 [Compound C18, 7-(3,4-dichlorobenzoyl)-3-(2-methoxyphenyl)-2-{[(3-methoxyphenyl)methyl]amino}-5,6,7,8-tetrahydropyrido[3,4-d]pyrimidin-4(3H)-one] | 3.27 | > 50 | –
COc1ccccc1-n1c(NCc2cncs2)nc2c(c1=O)CCN(C(=O)c1ccc(Cl)c(Cl)c1)C2 [Compound C19, 7-(3,4-dichlorobenzoyl)-3-(2-methoxyphenyl)-2-{[(1,3-thiazol-5-yl)methyl]amino}-5,6,7,8-tetrahydropyrido[3,4-d]pyrimidin-4(3H)-one] | 8.77 | – | > 50
COc1ccccc1-n1c(NCCc2ccccc2)nc2c(c1=O)CCN(C(=O)c1ccc(Cl)c(Cl)c1)C2 [Compound C20, 7-(3,4-dichlorobenzoyl)-3-(2-methoxyphenyl)-2-[(2-phenylethyl)amino]-5,6,7,8-tetrahydropyrido[3,4-d]pyrimidin-4(3H)-one] | 8.92 | 23.1 | –
O=C(c1ccc(Cl)c(Cl)c1)N1CCc2c(nc(NCc3ccccc3)[nH]c2=O)C1 [Compound C21, 2-(benzylamino)-7-(3,4-dichlorobenzoyl)-5,6,7,8-tetrahydropyrido[3,4-d]pyrimidin-4(3H)-one] | 7.51 | 24.7 | –
COc1ccccc1-n1c(NCC(C)C)nc2c(c1=O)CCN(C(=O)c1ccc(Cl)c(Cl)c1)C2 [Compound C22, 7-(3,4-dichlorobenzoyl)-3-(2-methoxyphenyl)-2-[(2-methylpropyl)amino]-5,6,7,8-tetrahydropyrido[3,4-d]pyrimidin-4(3H)-one] | 21.7 | 26.2 | –
COc1ccccc1-n1c(NCc2ccc(C(F)(F)F)cc2)nc2c(c1=O)CCN(C(=O)c1ccc(Cl)c(Cl)c1)C2 [Compound C23, 7-(3,4-dichlorobenzoyl)-3-(2-methoxyphenyl)-2-({[4-(trifluoromethyl)phenyl]methyl}amino)-5,6,7,8-tetrahydropyrido[3,4-d]pyrimidin-4(3H)-one] | 2.56 | > 50 | –
COc1ccccc1-n1c(NC(C)C)nc2c(c1=O)CCN(C(=O)c1ccc(Cl)c(Cl)c1)C2 [Compound C24, 7-(3,4-dichlorobenzoyl)-3-(2-methoxyphenyl)-2-[(propan-2-yl)amino]-5,6,7,8-tetrahydropyrido[3,4-d]pyrimidin-4(3H)-one] | 2.25 | > 50 | –
COc1ccccc1-n1c(NCC2CCN(C(C)=O)CC2)nc2c(c1=O)CCN(C(=O)c1ccc(Cl)c(Cl)c1)C2 [Compound C25, 2-{[(1-acetylpiperidin-4-yl)methyl]amino}-7-(3,4-dichlorobenzoyl)-3-(2-methoxyphenyl)-5,6,7,8-tetrahydropyrido[3,4-d]pyrimidin-4(3H)-one] | 44.7 | – | > 50
COc1ccccc1-n1c(NCc2ccc3c(c2)OCO3)nc2c(c1=O)CCN(C(=O)c1ccc(Cl)c(Cl)c1)C2 [Compound C26, 2-{[(2H-1,3-benzodioxol-5-yl)methyl]amino}-7-(3,4-dichlorobenzoyl)-3-(2-methoxyphenyl)-5,6,7,8-tetrahydropyrido[3,4-d]pyrimidin-4(3H)-one] | 1.72 | – | > 50
COc1ccccc1-n1c(NCc2ccc(S(C)(=O)=O)cc2)nc2c(c1=O)CCN(C(=O)c1ccc(Cl)c(Cl)c1)C2 [Compound C27, 7-(3,4-dichlorobenzoyl)-2-({[4-(methanesulfonyl)phenyl]methyl}amino)-3-(2-methoxyphenyl)-5,6,7,8-tetrahydropyrido[3,4-d]pyrimidin-4(3H)-one] | 1.98 | – | > 50
COCCn1c(NCc2ccccc2)nc2c(c1=O)CCN(C(=O)c1ccc(Cl)c(Cl)c1)C2 [Compound C28, 2-(benzylamino)-7-(3,4-dichlorobenzoyl)-3-(2-methoxyethyl)-5,6,7,8-tetrahydropyrido[3,4-d]pyrimidin-4(3H)-one] | 9.1 | – | 25.2
COc1ccccc1-n1c(NCc2ccc(F)cc2F)nc2c(c1=O)CCN(C(=O)c1ccc(Cl)c(Cl)c1)C2 [Compound C29, 7-(3,4-dichlorobenzoyl)-2-{[(2,4-difluorophenyl)methyl]amino}-3-(2-methoxyphenyl)-5,6,7,8-tetrahydropyrido[3,4-d]pyrimidin-4(3H)-one] | 7.43 | – | 23.3
COc1ccccc1-n1c(NCc2ccc(Cl)cc2Cl)nc2c(c1=O)CCN(C(=O)c1ccc(Cl)c(Cl)c1)C2 [Compound C30, 7-(3,4-dichlorobenzoyl)-2-{[(2,4-dichlorophenyl)methyl]amino}-3-(2-methoxyphenyl)-5,6,7,8-tetrahydropyrido[3,4-d]pyrimidin-4(3H)-one] | > 50 | – | > 50
COc1ccc(CN(C)c2nc3c(c(=O)[nH]2)CCN(C(=O)c2ccc(Cl)c(Cl)c2)C3)cc1 [Compound C31, 7-(3,4-dichlorobenzoyl)-2-{[(4-methoxyphenyl)methyl](methyl)amino}-5,6,7,8-tetrahydropyrido[3,4-d]pyrimidin-4(3H)-one] | 2.63 | – | > 50
COc1ccccc1-n1c(NC2CCC2)nc2c(c1=O)CCN(C(=O)c1ccc(Cl)c(Cl)c1)C2 [Compound C32, 2-(cyclobutylamino)-7-(3,4-dichlorobenzoyl)-3-(2-methoxyphenyl)-5,6,7,8-tetrahydropyrido[3,4-d]pyrimidin-4(3H)-one] | 19.9 | – | 29.5
O=C(c1ccc(Cl)c(Cl)c1)N1CCc2c(nc(NCc3ccccc3)n(-c3ccccc3)c2=O)C1 [Compound C33, 2-(benzylamino)-7-(3,4-dichlorobenzoyl)-3-phenyl-5,6,7,8-tetrahydropyrido[3,4-d]pyrimidin-4(3H)-one] | 4.27 | – | 24.4
COc1ccc(CNc2nc3c(c(=O)[nH]2)CCN(C(=O)c2ccc(Cl)c(Cl)c2)C3)cc1 [Compound C34, 7-(3,4-dichlorobenzoyl)-2-{[(4-methoxyphenyl)methyl]amino}-5,6,7,8-tetrahydropyrido[3,4-d]pyrimidin-4(3H)-one] | 4.03 | – | 26.6
COc1ccccc1-n1c(N[C@@H](C)c2ccccc2)nc2c(c1=O)CCN(C(=O)c1ccc(Cl)c(Cl)c1)C2 [Compound C35, 7-(3,4-dichlorobenzoyl)-3-(2-methoxyphenyl)-2-{[(1S)-1-phenylethyl]amino}-5,6,7,8-tetrahydropyrido[3,4-d]pyrimidin-4(3H)-one] | 1.41 | – | 33.2
COc1ccc(CNc2nc3c(c(=O)n2-c2ccccc2OC)CC(C)N(C(=O)c2ccc(Cl)c(Cl)c2)C3)cc1 (stereo not shown) [Compound C36, 7-(3,4-dichlorobenzoyl)-3-(2-methoxyphenyl)-2-{[(4-methoxyphenyl)methyl]amino}-6-methyl-5,6,7,8-tetrahydropyrido[3,4-d]pyrimidin-4(3H)-one] | 1.26 | – | > 50
COc1ccccc1-n1c(NCCO)nc2c(c1=O)CCN(C(=O)c1ccc(Cl)c(Cl)c1)C2 [Compound C37, 7-(3,4-dichlorobenzoyl)-2-[(2-hydroxyethyl)amino]-3-(2-methoxyphenyl)-5,6,7,8-tetrahydropyrido[3,4-d]pyrimidin-4(3H)-one] | 32.1 | – | > 50
